Measured values published in ChEMBL document CHEMBL5104217, “Identification of a Target Site for Covalent Inhibition of Protein Phosphohistidine Phosphatase 1” (ACS Med Chem Lett, 2022).
Activity calls are given as the source filed them. The rule behind the calls is not given here.

Experiments:
[1] = target: T1, 14 kDa phosphohistidine phosphatase (Homo sapiens, UniProt Q9NRX4); assay: Inhibition of human PHPT1 expressed in Escherichia coli BL21 (DE3) using pNPP as substrate incubated for 1 hr by multimode microplate reader analysis
T1 sequence (Q9NRX4 whole entry): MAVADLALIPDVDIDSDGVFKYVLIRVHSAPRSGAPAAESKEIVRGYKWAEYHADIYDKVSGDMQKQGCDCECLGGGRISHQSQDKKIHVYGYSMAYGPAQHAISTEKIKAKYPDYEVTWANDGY

[2] = target: T2, 14 kDa phosphohistidine phosphatase (Homo sapiens) (UniProt Q9NRX4); assay: Covalent inhibition of human PHPT1 expressed in Escherichia coli BL21 (DE3) using pNPP as substrate at 10 equiv preincubated for 60 mins by multimode microplate reader analysis
T2 sequence (whole entry): T1 sequence (Q9NRX4 whole entry)

[3] = target: T2, 14 kDa phosphohistidine phosphatase (Homo sapiens); assay: Covalent inhibition of human PHPT1 expressed in Escherichia coli BL21 (DE3) assessed as inhibition of dephosphorylation of histidine-phosphorylated BSA at 10 equiv preincubated for 1 hr followed by substrate addition and measured for 150 secs by Western blot analysis; settings: time 3750.0 sec
[4] = target: T2, 14 kDa phosphohistidine phosphatase (Homo sapiens); assay: Covalent inhibition of human PHPT1 expressed in Escherichia coli BL21 (DE3) assessed as increase in protein mass at 10 equiv incubated for 1 hr by RP-HPLC based ESI-MS analysis
Homo sapiens [5] = organism: Homo sapiens; assay: Covalent binding affinity to human PHPT1 C69A mutant expressed in Escherichia coli BL21 (DE3) assessed as covalent adduct formation at 10 equiv incubated for 1 hr by RP-HPLC based ESI-MS analysis
Homo sapiens [6] = organism: Homo sapiens; assay: Covalent binding affinity to human PHPT1 C71A mutant expressed in Escherichia coli BL21 (DE3) assessed as covalent adduct formation at 10 equiv incubated for 1 hr by RP-HPLC based ESI-MS analysis
[7] = target: T2, 14 kDa phosphohistidine phosphatase (Homo sapiens); assay: Inhibition of human PHPT1 expressed in Escherichia coli BL21 (DE3) using pNPP as substrate assessed as Kinact by reciprocal analysis
[8] = target: T1, 14 kDa phosphohistidine phosphatase; assay: Inhibition of human PHPT1 expressed in Escherichia coli BL21 (DE3) using pNPP as substrate assessed as inhibition constant by reciprocal analysis
[9] = target: T2, 14 kDa phosphohistidine phosphatase (Homo sapiens); assay: Inhibition of human PHPT1 expressed in Escherichia coli BL21 (DE3) using pNPP as substrate assessed as Kinact/Ki by reciprocal analysis

| IC50 [1] | inhibition [2] | inhibition [3] | inhibition [4] | Activity (Homo sapiens [5]) | Activity (Homo sapiens [6]) | Kinact [7] | Ki [8] | Ratio [9] | SMILES |
| --- | --- | --- | --- | --- | --- | --- | --- | --- | --- |
| 18.3 µM | Active | Active | Active | Active | Active | 0.00267 s⁻¹ | 183 µM | 14.6 M⁻¹ s⁻¹ | C=C(CC)C(=O)c1ccc(OCC(=O)O)c(Cl)c1Cl [ETHACRYNIC ACID] |
|  |  |  |  |  |  | 0.0075 s⁻¹ | 209 µM | 31 M⁻¹ s⁻¹ | CCN1C(=O)C=CC1=O [N-ETHYLMALEIMIDE] |
